According to patent US20080038220A1 (LABORATOIRES BESINS INTERNATIONAL, priority 2004, published 2008):
In brackets after ≈: the same amount, converted by molar mass. Like-named read-outs stand apart in the source and are kept apart here.

How the values were obtained:
[1] = Testosterone solubility by the increment method; assay type: physicochemical; conditions: thermodynamic from solid
Protocol: A known amount of solvent (2 mL) is stirred at 37° C. in a closed Erlenmeyer.

[2] = target: T1, sex hormone binding globulin, albumin (Homo sapiens, UniProt P04278); conditions: cited from earlier work
T1 sequence (P04278 30-402): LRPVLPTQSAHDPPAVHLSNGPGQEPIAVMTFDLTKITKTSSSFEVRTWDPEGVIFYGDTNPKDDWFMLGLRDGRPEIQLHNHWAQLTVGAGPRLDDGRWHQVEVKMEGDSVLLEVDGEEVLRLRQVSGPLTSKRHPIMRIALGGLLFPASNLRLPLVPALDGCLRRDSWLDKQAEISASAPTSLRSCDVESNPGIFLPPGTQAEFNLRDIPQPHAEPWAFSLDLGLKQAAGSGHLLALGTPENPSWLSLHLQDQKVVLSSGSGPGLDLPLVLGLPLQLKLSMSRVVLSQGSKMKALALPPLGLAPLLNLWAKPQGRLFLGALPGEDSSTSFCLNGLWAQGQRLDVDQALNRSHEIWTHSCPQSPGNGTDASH

[3] = target: sex hormone binding globulin, albumin (Homo sapiens, UniProt P02768); conditions: cited from earlier work
Chain of sex hormone binding globulin, albumin (Homo sapiens, UniProt P02768) (P02768 25-609): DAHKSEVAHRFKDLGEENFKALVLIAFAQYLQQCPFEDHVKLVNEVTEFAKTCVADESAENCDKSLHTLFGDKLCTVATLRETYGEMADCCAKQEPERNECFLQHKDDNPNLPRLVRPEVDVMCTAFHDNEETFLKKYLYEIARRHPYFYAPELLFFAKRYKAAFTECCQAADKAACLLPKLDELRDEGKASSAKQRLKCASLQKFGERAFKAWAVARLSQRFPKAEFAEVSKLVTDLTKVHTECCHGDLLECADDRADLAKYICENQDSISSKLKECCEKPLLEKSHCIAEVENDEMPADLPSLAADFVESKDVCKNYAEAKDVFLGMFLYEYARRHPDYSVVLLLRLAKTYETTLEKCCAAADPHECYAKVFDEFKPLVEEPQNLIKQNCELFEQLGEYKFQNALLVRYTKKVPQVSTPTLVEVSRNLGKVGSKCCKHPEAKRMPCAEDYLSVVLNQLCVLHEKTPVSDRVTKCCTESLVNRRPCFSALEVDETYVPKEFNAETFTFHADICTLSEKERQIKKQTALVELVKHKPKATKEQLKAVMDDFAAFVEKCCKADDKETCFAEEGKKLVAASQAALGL

[4] = system: sex hormone binding globulin, albumin; conditions: cited from earlier work

C[C@]12CC[C@H]3[C@@H](CCC4=CC(=O)CC[C@@]43C)[C@@H]1CC[C@@H]2O [Testosterone]
solubility ([1]; aqueous with cosolvent or surfactant or cyclodextrin, water/ethanol mixture, 95% ethanol (v/v) 63/37, 37° C.): 30 mg/mL (≈ 104 mM)
solubility ([1]; aqueous with cosolvent or surfactant or cyclodextrin, water/ethanol mixture, 95% ethanol (v/v) 74/26, 37° C.): 52 mg/mL (≈ 180 mM)
solubility ([1]; aqueous with cosolvent or surfactant or cyclodextrin, water/ethanol mixture, 95% ethanol (v/v) 84/16, 37° C.): 120 mg/mL (≈ 416 mM)
solubility ([1]; aqueous with cosolvent or surfactant or cyclodextrin, water/ethanol mixture, 95% ethanol (v/v) 86/14, 37° C.): 160 mg/mL (≈ 555 mM)
solubility ([1]; oleic acid (OA) 100%, oil or lipid, solvent OA (100%), 37° C.): 66 mg/mL (≈ 229 mM)
solubility ([1]; organic solvent or mixture, solvent Transcutol (100%), 37° C.): 140 mg/mL (≈ 485 mM)
solubility ([1]; organic solvent or mixture, water/ethanol mixture, 95% ethanol (v/v) 100/0, 37° C.): 340 mg/mL (≈ 1180 mM)
solubility ([1]; propylene glycol (PG) 100%, organic solvent or mixture, solvent PG (100%), 37° C.): 86 mg/mL (≈ 298 mM)
solubility ([1]; propylene glycol dipelargonate (PGDP) 100%, oil or lipid, solvent PGDP (100%), 37° C.): 18 mg/mL (≈ 62.4 mM)
solubility ([1]; propylene glycol/oleic acid (PG/OA) 50/50, organic solvent or mixture, solvent PG/OA (50/50), 37° C.): 79 mg/mL (≈ 274 mM)
share of the binding to sex hormone binding globulin ([2]; men): approximately 40%
share of the binding to sex hormone binding globulin ([2]; women): approximately 66%
share bound weakly to albumin ([3]; men): 60%
share bound weakly to albumin ([3]; women): 34%
bound to protein in the blood ([4]; men): 98%
bound to protein in the blood ([4]; women): 98%
